Test results: patent US20060079453A1, “Hla binding peptides and their uses” (priority 2002, published 2006)
No end group written: not given here.

Experiments:
Assay in all cases: biochemical
Type in all cases: binding
[1] = molecular target: HLA-A*0301 (Homo sapiens, UniProt P04439)
[2] = molecular target: HLA-A*1101 (Homo sapiens, UniProt P04439, A114D/D185E/E176A/F33Y/L180Q/S129P/T187R)
[3] = molecular target: HLA-A*3301 (Homo sapiens, UniProt P04439, A270S/D185E/E176V/E277Q/E87N/F33T/G231S/H175R/I121M/I218V/I322F/K168Q/K210R/L300P/L318F/M331R/P217A/Q86R/Q94H/R138Q/T323A/T345S/T97I/V358M/Y195H)
[4] = molecular target: HLA-A*3101 (Homo sapiens, UniProt P04439, A270S/D185E/E176V/E277Q/F33T/G231S/G80R/H175R/I121M/I218V/I322F/K168Q/L300P/L318F/M331R/P217A/Q94H/R138Q/T323A/T345S/T97I/V358M)
[5] = molecular target: HLA-A*6801 (Homo sapiens, UniProt P04439, A269V/D185E/E176V/E277Q/E87N/F33Y/G231S/I121M/I166T/I218V/L180W/L300P/L318F/N151K/P208A/P217A/Q86R/R169H/T345S)

Row | Sequence | IC50 [1] | IC50 [2] | IC50 [3] | IC50 [4] | IC50 [5]
1 | AACWRSRRK | 75 nM | 770 nM | 45300 nM | 3020 nM | 12900 nM
2 | AFCWRPRRR | 273 nM | 17900 nM | 75 nM | 60 nM | 1090 nM
3 | ALERLLSLK | 233 nM | 369 nM | 12800 nM | 3430 nM | 13700 nM
4 | ALKISQLQK | 15 nM | 96 nM | 23800 nM | 3200 nM | > 54800 nM
5 | ALNAAAAAK | 74 nM | 21 nM | > 72500 nM | 11000 nM | 80000 nM
6 | ALQAAAAAK | 57 nM | 65 nM | > 72500 nM | 52000 nM | > 80000 nM
7 | ATTDLTIVYR |  | 10 nM | 1740 nM | 34 nM | 14 nM
8 | AVADLTVVYR | 489 nM | 11 nM | 892 nM | 31 nM | 7.3 nM
9 | AVIFTPIYY | 25 nM | 9.5 nM | 10100 nM | 42300 nM | 1350 nM
10 | AVKDLCIVYR | 841 nM | 66 nM | 8 nM | 7.3 nM | 6.5 nM
11 | AVKDLFVVYR | 1730 nM | 91 nM | 9.1 nM | 3.1 nM | 3.3 nM
12 | AVPGGYPRRK | 819 nM | 60 nM | > 5570 nM | 40000 nM | 846 nM
13 | DTIPHAACHK | 2370 nM | 701 nM | 9.3 nM | 1760 nM | 23 nM
14 | DTLEQTLKR | 31300 nM | 12900 nM | 9.2 nM | 38100 nM | 110 nM
15 | DTVYGDTLEK | 50 nM | 15 nM | 55100 nM | 28800 nM | 31 nM
16 | ELTEVFEFAFK | 8970 nM | 582 nM | 1730 nM | 25200 nM | 15 nM
17 | ETNPFGICK | 9590 nM | 100 nM | 804 nM | 29100 nM | 14 nM
18 | ETVRHFPR | > 13500 nM | 4180 nM | 81 nM | 1000 nM | 86 nM
19 | EVLEIPLIDLR | > 47000 nM | 16600 nM | 72 nM | 36400 nM | 27 nM
20 | EVYNFACTELK | 1620 nM | 117 nM | 5.9 nM | 484 nM | 2.7 nM
21 | FAFADLTVVY | 18600 nM | 5870 nM | 26800 nM | 23700 nM | 402 nM
22 | FAFTDLTIVY |  | 21200 nM | 131000 nM | 42100 nM | 346 nM
23 | FISFYLINK | 19 nM | 9 nM | 1460 nM | 2190 nM | 18 nM
24 | FLYLLNKKNK | 177 nM | 475 nM | 780 nM | 4310 nM | 155 nM

Row | Sequence | IC50 [1] | IC50 [2] | IC50 [3] | IC50 [4] | IC50 [5]
25 | FVVYRDSIPK | 265 nM | 81 nM | 146 nM | 6220 nM | 30 nM
26 | GFNHQHLPAR | > 46600 nM | 27900 nM | 5570 nM | 173 nM | 34600 nM
27 | GLYNLLIRCLR |  | 1570 nM | 401 nM | 250 nM | 1620 nM
28 | GTGISYGRK | 480 nM | 77 nM | > 43700 nM | 58100 nM | 7410 nM
29 | GTMYILLKK | 2.2 nM | 1.2 nM | 8450 nM | 29 nM | 3.1 nM
30 | GTRQARRNK | 67 nM | 749 nM | 46000 nM | 9710 nM | 59700 nM
31 | GTRQARRNRK | 100 nM | 634 nM | > 42300 nM | 3800 nM | 7790 nM
32 | GTRQTRKNK |  | 3100 nM | > 29700 nM | 13400 nM | 18700 nM
33 | GTTLESITKK | 622 nM | 108 nM | 133000 nM | 85200 nM | 10100 nM
34 | GVDGLIYSK | 10100 nM | 47 nM | > 29700 nM | > 17700 nM | 5100 nM
35 | GVLDGLIYSK |  | 21 nM | > 25200 nM | 6010 nM | 831 nM
36 | GVNHQHLPAK | 42 nM | 11 nM | 76200 nM | 3340 nM | 9350 nM
37 | GVSGPGPGK | 13 nM | 5.8 nM | > 112000 nM | > 11200 nM | 209 nM
38 | GVSHAQLPAK | 42 nM | 12 nM | > 74900 nM | 36000 nM | 20600 nM
39 | ILDLWVYK |  | 320 nM | 30100 nM | 13700 nM | 12100 nM
40 | KFIDFYSRIR |  | 9010 nM | 677 nM | 3.3 nM | 2550 nM
41 | KFSEFRWYRY | 4750 nM | 1590 nM | 856 nM | 34 nM | 12800 nM
42 | KFSEYRHYCY |  | 7480 nM | 49400 nM | 308 nM | 14600 nM
43 | KFYSKISEYK | 7.6 nM | 674 nM | 329 nM | 27 nM | 208 nM
44 | KILIKIPVTK |  | 60 nM | 25000 nM | 1660 nM | 19600 nM
45 | KISEYRHYNK | 29 nM | 18 nM | 24800 nM | 397 nM | 15600 nM
46 | KISEYRHYNR | 58 nM | 140 nM | 161 nM | 17 nM | 1580 nM
47 | KMFLQLAK | 45 nM | 62 nM | > 126000 nM | 677 nM | 8380 nM
48 | KQENWYSLKK | 608 nM | 178 nM | > 136000 nM | 6330 nM | 4790 nM

Row | Sequence | IC50 [1] | IC50 [2] | IC50 [3] | IC50 [4] | IC50 [5]
49 | KQHTCYLIR |  | 213 nM | 2280 nM | 13 nM | 12200 nM
50 | KQLCDLLIK | 226 nM | 65 nM | 46400 nM | 340 nM | 11900 nM
51 | KQRFHNIRGK | 55 nM | 1950 nM | 35200 nM | 573 nM | 22900 nM
52 | KSMLKELIK | 189 nM | 151 nM | > 46500 nM | 450 nM | > 37000 nM
53 | KTLGISYGR | 53 nM | 9.8 nM | 502 nM | 21 nM | 36 nM
54 | KTLGISYGRK | 36 nM | 79 nM | 42400 nM | 841 nM | 1630 nM
55 | KVGPGGYPRR | 2270 nM | 487 nM | 7900 nM | 250 nM | 721 nM
56 | KVGPGGYPRRK | 70 nM | 87 nM | > 5060 nM | 775 nM | 921 nM
57 | KVGSLQYLK | 482 nM | 70 nM | > 43700 nM | 2100 nM | 4200 nM
58 | KVRFHNIRGR | 39 nM | 8630 nM | 4500 nM | 27 nM | 3980 nM
59 | LVYRDDFPK |  | 13 nM | 1970 nM | 3010 nM | 130 nM
60 | MQSSFFMNR |  | 1.1 nM | 75 nM | 29 nM | 3.8 nM
61 | RFCLLFYSK |  | 484 nM | 450 nM | 83 nM | 232 nM
62 | RFEDPTRRPYK |  | 432 nM | 1760 nM | 53 nM | 7340 nM
63 | RMYVGGVEH | 3.8 nM | 274 nM | > 123000 nM |  | > 28800 nM
64 | SLFGPGPGK | 3.4 nM | 2.3 nM | 82300 nM |  | 36 nM
65 | SSPLFNNFYK | 100 nM | 0.7 nM | 1730 nM |  | 6.3 nM
66 | SVYGTTLER | 28 nM | 6.4 nM | 454 nM |  | 21 nM
67 | TTRYKYLNK | 117 nM | 848 nM | 652 nM |  | 2560 nM
68 | TVGPGPGPEK |  | 17 nM | 98200 nM | 10100 nM | 23 nM
69 | VTVGPGPGVWK |  | 2.7 nM | 75400 nM | 2730 nM | 21 nM
70 | VTVKVGGQLK | 206 nM | 54 nM | 46200 nM |  | 104 nM
71 | VVHAQLPAR |  | 127 nM | 12 nM | 3.4 nM | 201 nM
